In the assay the target is T1, rat NaPi-2b (Rattus norvegicus, UniProt Q9JJ09).
T1 construct: expressed in transfected cells; host or cells: Xenopus oocytes injected with cRNA
T1 sequence (Q9JJ09 1-695): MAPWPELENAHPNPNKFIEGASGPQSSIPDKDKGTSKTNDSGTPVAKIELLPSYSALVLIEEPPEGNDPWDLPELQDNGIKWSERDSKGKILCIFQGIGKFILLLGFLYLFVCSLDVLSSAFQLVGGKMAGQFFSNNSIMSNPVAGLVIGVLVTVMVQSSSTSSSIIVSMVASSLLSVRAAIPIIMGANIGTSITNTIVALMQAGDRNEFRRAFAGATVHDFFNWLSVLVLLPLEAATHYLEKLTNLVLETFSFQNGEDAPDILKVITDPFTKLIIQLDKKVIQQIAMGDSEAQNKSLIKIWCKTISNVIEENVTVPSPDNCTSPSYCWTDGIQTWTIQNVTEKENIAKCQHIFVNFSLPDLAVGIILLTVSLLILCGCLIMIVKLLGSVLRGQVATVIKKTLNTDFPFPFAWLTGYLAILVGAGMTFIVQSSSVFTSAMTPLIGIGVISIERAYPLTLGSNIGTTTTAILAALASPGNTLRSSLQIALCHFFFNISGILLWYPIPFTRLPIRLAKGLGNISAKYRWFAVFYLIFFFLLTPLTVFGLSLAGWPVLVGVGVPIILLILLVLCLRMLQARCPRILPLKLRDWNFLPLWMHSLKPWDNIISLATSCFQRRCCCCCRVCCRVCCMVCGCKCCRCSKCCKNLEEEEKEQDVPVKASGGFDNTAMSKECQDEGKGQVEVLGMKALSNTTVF
The experiment in a line: Sodium-dependent phosphate uptake of Xenopus oocytes which expressed NaPi-2b (32P). The class given is cell-based. Particulars: for inhibition at 300 µM: phosphate uptake, oocytes expressing rat NaPi-2b, determined from inhibition curve; for IC50: Xenopus oocytes expressing rat NaPi-2b, 32P radioactive phosphorus, read-out: IC50 (phosphate uptake inhibitory activity). The essentials: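 Steps: rat NaPi-2b cDNA cloned from small intestine; cRNA made and injected into oocytes; 2-day expression; 32P phosphate uptake with compound; % inhibition at 300/100 μM taken from one curve.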

Where only a bound is given, the exact number is not on record here.

The inhibition is how much of the control response was suppressed. A low value points to a response near the control. As usually defined, the IC50 is the midpoint of a concentration-inhibition curve.

Compound `CCOCCN(CCOCC)Cc1ccc(C(=O)Nc2ccc(Br)cc2C(=O)N/N=C/c2ccc(OC)cc2)cc1` [Compound 739, 4-{[Bis-(2-ethoxy-ethyl)-amino]-methyl}-N-[4-bromo-2-(4-methoxy-benzylidene-hydrazinocarbonyl)-phenyl]-benzamide] displayed an inhibition at 300 µM of 58.9%.

On to `CCOCCN(CCOCC)Cc1ccc(C(=O)Nc2ccc(Br)cc2C(=O)N/N=C/c2cccc(OC)c2)cc1` [Compound 740, 4-{[Bis-(2-ethoxy-ethyl)-amino]-methyl}-N-[4-bromo-2-(3-methoxy-benzylidene-hydrazinocarbonyl)-phenyl]-benzamide], for which the inhibition at 300 µM turned out to be 58.5%. Still for that read-out and setting: in the case of `Cc1ccc(/C=N/NC(=O)c2cc(Br)ccc2NC(=O)c2ccc(CN3CCC(CCO)CC3)cc2)cc1` [Compound 741, N-[4-Bromo-2-(4-methyl-benzylidene-hydrazinocarbonyl)-phenyl]-4-[4-(2-hydroxy-ethyl)-piperidin-1-ylmethyl]-benzamide] it was 50.9%; in that of `Cc1cccc(/C=N/NC(=O)c2cc(Br)ccc2NC(=O)c2ccc(CN3CCC(CCO)CC3)cc2)c1` [Compound 742, N-[4-Bromo-2-(3-methyl-benzylidene-hydrazinocarbonyl)-phenyl]-4-[4-(2-hydroxy-ethyl)-piperidin-1-ylmethyl]-benzamide], 77.6%. On to `O=C(Nc1ccc(Br)cc1C(=O)N/N=C/c1ccc(F)cc1)c1ccc(CN2CCC(CCO)CC2)cc1` [Compound 743, N-[4-Bromo-2-(4-fluoro-benzylidene-hydrazinocarbonyl)-phenyl]-4-[4-(2-hydroxy-ethyl)-piperidin-1-ylmethyl]-benzamide], for which the IC50 amounted to 14.4 µM.

`O=C(Nc1ccc(Br)cc1C(=O)N/N=C/c1cccc(F)c1)c1ccc(CN2CCC(CCO)CC2)cc1` [Compound 744, N-[4-Bromo-2-(3-fluoro-benzylidene-hydrazinocarbonyl)-phenyl]-4-[4-(2-hydroxy-ethyl)-piperidin-1-ylmethyl]-benzamide] displayed an inhibition at 300 µM of 83.7%. For the compound `O=C(Nc1ccc(Br)cc1C(=O)N/N=C/c1ccc(Cl)c(C(F)(F)F)c1)c1ccc(CN2CCC(CCO)CC2)cc1` [Compound 745, N-[4-Bromo-2-(4-chloro-3-trifluoromethyl-benzylidene-hydrazinocarbonyl)-phenyl]-4-[4-(2-hydroxy-ethyl)-piperidin-1-ylmethyl]-benzamide], the IC50 was 6.12 µM. Turning to `COc1cccc(/C=N/NC(=O)c2cc(Br)ccc2NC(=O)c2ccc(CN3CCC(CCO)CC3)cc2)c1` [Compound 746, N-[4-Bromo-2-(3-methoxy-benzylidene-hydrazinocarbonyl)-phenyl]-4-[4-(2-hydroxy-ethyl)-piperidin-1-ylmethyl]-benzamide], the 50% inhibitory concentration (IC50) came to 16.8 µM. Same read-out and setting: in the case of `O=C(Nc1ccc(Br)cc1C(=O)NN=Cc1ccc(Cl)c(C(F)(F)F)c1)c1ccc(CNC(CN2CCOCC2)c2ccccc2)cc1` (stereo not drawn) [Compound 747, N-[4-Bromo-2-(4-chloro-3-trifluoromethyl-benzylidene-hydrazinocarbonyl)-phenyl]-4-[(2-morpholin-4-yl-1-phenyl-ethylamino)-methyl]-benzamide] it was 11.9 µM. Turning to `COc1ccc(/C=N/NC(=O)c2cc(Br)ccc2NC(=O)c2ccc(CNC(CN3CCOCC3)c3ccccc3)cc2)cc1` (stereo not drawn) [Compound 748, N-[4-Bromo-2-(4-methoxy-benzylidene-hydrazinocarbonyl)-phenyl]-4-[(2-morpholin-4-yl-1-phenyl-ethylamino)-methyl]-benzamide], testing at 300 µM gave an inhibition of 56.5%.

As for `CCN1CC(NCc2ccc(-c3nc4ccc(Br)cc4c(=O)n3/N=C/c3ccc(C)c(C)c3)cc2)CN1CC` [Compound 749, 6-Bromo-2-{4-[(1,2-diethyl-pyrazolidin-4-ylamino)-methyl]-phenyl}-3-[(3,4-dimethyl-benzylidene)-amino]-3H-quinazolin-4-one], the concentration for half-maximal inhibition (IC50) turned out to be 9.05 µM. On the same count and under the same terms, in the case of `CCN1CC(NCc2ccc(C(=O)Nc3ccc(Br)cc3C(=O)N/N=C/c3ccc(C)c(C)c3)cc2)CN1CC` [Compound 750, N-[4-Bromo-2-(3,4-dimethyl-benzylidene-hydrazinocarbonyl)-phenyl]-4-[(1,2-diethyl-pyrazolidin-4-ylamino)-methyl]-benzamide] it was less than 3 µM; in that of `CCN1CC(NCc2ccc(-c3nc4ccc(Br)cc4c(=O)n3/N=C/c3cccc(F)c3)cc2)CN1CC` [Compound 751, 6-Bromo-2-{4-[(1,2-diethyl-pyrazolidin-4-ylamino)-methyl]-phenyl}-3-[(3-fluoro-benzylidene)-amino]-3H-quinazolin-4-one], 13.1 µM. Still for that read-out and setting: in the case of `CCN1CC(NCc2ccc(C(=O)Nc3ccc(Br)cc3C(=O)N/N=C/c3cccc(F)c3)cc2)CN1CC` [Compound 752, N-[4-Bromo-2-(3-fluoro-benzylidene-hydrazinocarbonyl)-phenyl]-4-[(1,2-diethyl-pyrazolidin-4-ylamino)-methyl]-benzamide] it was less than 3 µM; in that of `CCN1CC(NCc2ccc(-c3nc4ccc(Br)cc4c(=O)n3/N=C/c3ccc(Cl)c(C(F)(F)F)c3)cc2)CN1CC` [Compound 753, 6-Bromo-3-[(4-chloro-3-trifluoromethyl-benzylidene)-amino]-2-{4-[(1,2-diethyl-pyrazolidin-4-ylamino)-methyl]-phenyl}-3H-quinazolin-4-one], 12.4 µM; in that of `CCN1CC(NCc2ccc(C(=O)Nc3ccc(Br)cc3C(=O)N/N=C/c3ccc(Cl)c(C(F)(F)F)c3)cc2)CN1CC` [Compound 754, N-[4-Bromo-2-(4-chloro-3-trifluoromethyl-benzylidene-hydrazinocarbonyl)-phenyl]-4-[(1,2-diethyl-pyrazolidin-4-ylamino)-methyl]-benzamide], less than 3 µM. `CCN1CC(NCc2ccc(-c3nc4ccc(Br)cc4c(=O)n3/N=C/c3ccc(OC)cc3)cc2)CN1CC` [Compound 755, 6-Bromo-2-{4-[(1,2-diethyl-pyrazolidin-4-ylamino)-methyl]-phenyl}-3-[(4-methoxy-benzylidene)-amino]-3H-quinazolin-4-one] showed an inhibition at 300 µM of 67.3%. `CCN1CC(NCc2ccc(C(=O)Nc3ccc(Br)cc3C(=O)N/N=C/c3ccc(OC)cc3)cc2)CN1CC` [Compound 756, N-[4-Bromo-2-(4-methoxy-benzylidene-hydrazinocarbonyl)-phenyl]-4-[(1,2-diethyl-pyrazolidin-4-ylamino)-methyl]-benzamide]: the IC50 was 10.3 µM.

For `Cc1ccc(/C=N/NC(=O)c2cc(Br)ccc2NC(=O)c2ccc(CNCCCN(C)c3ccccc3)cc2)cc1C` [Compound 757, N-[4-Bromo-2-(3,4-dimethyl-benzylidene-hydrazinocarbonyl)-phenyl]-4-{[3-(methyl-phenyl-amino)-propylamino]-methyl}-benzamide], the 50% inhibitory concentration (IC50) came to 18.8 µM.

`Cc1ccc(/C=N/NC(=O)c2cc(Br)ccc2NC(=O)c2ccc(CNCCCN(C)c3ccccc3)cc2)cc1` [Compound 758, N-[4-Bromo-2-(4-methyl-benzylidene-hydrazinocarbonyl)-phenyl]-4-{[3-(methyl-phenyl-amino)-propylamino]-methyl}-benzamide]: the inhibition at 300 µM worked out at 58.2%. The compound `CN(CCCNCc1ccc(C(=O)Nc2ccc(Br)cc2C(=O)N/N=C/c2ccc(F)cc2)cc1)c1ccccc1` [Compound 759, N-[4-Bromo-2-(4-fluoro-benzylidene-hydrazinocarbonyl)-phenyl]-4-{[3-(methyl-phenyl-amino)-propylamino]-methyl}-benzamide] yielded an inhibition at 300 µM of 63.9%.

For the origin of these results see patent publication US8134015B2, “Compound inhibiting in vivo phosphorous transport and medicine containing the same” (Kyowa Hakko Kirin Co., Ltd., priority 2003, dated 2012).
